Read-outs that look alike come from different tables or passages of the source.
Legend:
[1] = tested on: Abutilon theophrasti; assay: greenhouse post-emergence herbicidal test; type: in vivo; settings: scale 0 to 100
Description: (§1) The culture containers used were plastic flowerpots containing loamy sand with approximately 3.0% of humus as the substrate. The seeds of the test plants were sown separately for each species.
(§2) For this purpose, the test plants were either sown directly and grown in the same containers, or they were first grown separately as seedlings and transplanted into the test containers a few days prior to treatment.
(§3) Depending on the species, the plants were kept at 10-25° C. or 20-35° C., respectively.
(§4) The test period extended over 2 to 4 weeks. During this time, the plants were tended, and their response to the individual treatments was evaluated.
(§5) Evaluation was carried out using a scale from 0 to 100. 100 means no emergence of the plants, or complete destruction of at least the aerial moieties, and 0 means no damage, or normal course of growth. A moderate herbicidal activity is given at values of at least 60, a good herbicidal activity is given at values of at least 70, and a very good herbicidal activity is given at values of at least 85.

[2] = tested on: Avena fatua; assay: greenhouse post-emergence herbicidal test; type: in vivo; settings: application rate 2 kg/ha, scale 0 to 100
Description: as §1, §2, §3, §4, §5

[3] = tested on: Amaranthus retroflexus; assay: greenhouse post-emergence herbicidal test; type: in vivo; settings: scale 0 to 100
Description: as §1, §2, §3, §4, §5

[4] = tested on: Setaria viridis; assay: greenhouse post-emergence herbicidal test; type: in vivo; settings: scale 0 to 100
Description: as §1, §2, §3, §4, §5

[5] = tested on: Echinocloa crus-galli; settings: post-emergence, application rate 2 kg/ha; scale 0 to 100
Description: as §1, §2, §3, §4, §5

[6] = tested on: Setaria faberi; settings: pre-emergence, application rate 2 kg/ha; scale 0 to 100
Excerpt: as §1
(§6) The containers were irrigated gently to promote germination and growth and subsequently covered with transparent plastic hoods until the plants had rooted. This cover caused uniform germination of the test plants, unless this had been impaired by the active ingredients.
as §3, §4, §5

[7] = tested on: Abutilon theophrasti; settings: pre-emergence, application rate 2 kg/ha; scale 0 to 100
Excerpt: as §1, §6, §3, §4, §5

[8] = tested on: Amaranthus retroflexus; settings: pre-emergence, application rate 2 kg/ha; scale 0 to 100
Excerpt: as §1, §6, §3, §4, §5

[9] = tested on: Alopecurus myosuroides; settings: post-emergence, scale 0 to 100
Description: as §1, §2, §3, §4, §5

[10] = tested on: Sesbania exaltata; settings: post-emergence, application rate 0.25 kg/ha; scale 0 to 100
Description: as §1, §2, §3, §4, §5

[11] = tested on: Polygonum convolvulus; settings: post-emergence, application rate 0.25 kg/ha; scale 0 to 100
Description: as §1, §2, §3, §4, §5

COC(=O)C1Cc2c(Cl)cc3c(c2O1)B(O)OC3 (single isomer, unassigned) [Compound 7]
herbicidal activity against Abutilon theophrasti ([1]; application rate 2 kg/ha): 100% | herbicidal activity against Avena fatua [2]: 100% | herbicidal activity against Amaranthus retroflexus ([3]; application rate 2 kg/ha): 100%

COC(=O)C1Cc2c(Cl)cc3c(c2O1)B(O)OC3 (single isomer, unassigned) [Compound 8]
herbicidal activity against Setaria viridis ([4]; application rate 2 kg/ha): 100% | herbicidal activity against Amaranthus retroflexus ([3]; application rate 2 kg/ha): 100% | herbicidal activity against Echinocloa crus-galli [5]: 100% | herbicidal activity against Setaria faberi [6]: 80%

O=C(O)C1Oc2ccc3c(c2O1)B(O)OC3 (stereo not drawn) [Compound 2, 1-hydroxy-3H-[1,3]dioxolo[4,5-g][2,1]benzoxaborole-7-carboxylic acid]
herbicidal activity against Abutilon theophrasti ([1]; application rate 2 kg/ha): 90% | herbicidal activity against Setaria viridis ([4]; application rate 2 kg/ha): 80% | herbicidal activity against Amaranthus retroflexus ([3]; application rate 2 kg/ha): 100%

CCOC(=O)C1Oc2ccc3c(c2O1)B(O)OC3 (stereo not drawn) [Compound 3, ethyl 1-hydroxy-3H-[1,3]dioxolo[4,5-g][2,1]benzoxaborole-7-carboxylate]
herbicidal activity against Setaria viridis ([4]; application rate 2 kg/ha): 100% | herbicidal activity against Amaranthus retroflexus ([3]; application rate 2 kg/ha): 100%

COC(=O)C1Oc2ccc3c(c2O1)B(O)OC3 (stereo not drawn) [Compound 4]
herbicidal activity against Abutilon theophrasti ([1]; application rate 2 kg/ha): 100% | herbicidal activity against Amaranthus retroflexus ([3]; application rate 2 kg/ha): 100%

COC(=O)C1Cc2ccc3c(c2O1)B(O)OC3 (stereo not drawn) [Compound 5]
herbicidal activity against Setaria viridis ([4]; application rate 2 kg/ha): 100% | herbicidal activity against Amaranthus retroflexus ([3]; application rate 2 kg/ha): 100% | herbicidal activity against Echinocloa crus-galli [5]: 100% | herbicidal activity against Abutilon theophrasti [7]: 80% | herbicidal activity against Setaria faberi [6]: 85% | herbicidal activity against Amaranthus retroflexus [8]: 95%

O=C(O)C1Cc2ccc3c(c2O1)B(O)OC3 (stereo not drawn) [Compound 6]
herbicidal activity against Abutilon theophrasti ([1]; application rate 2 kg/ha): 100% | herbicidal activity against Amaranthus retroflexus ([3]; application rate 2 kg/ha): 100% | herbicidal activity against Alopecurus myosuroides ([9]; application rate 2 kg/ha): 98% | herbicidal activity against Amaranthus retroflexus [8]: 80%

COC(=O)C1Cc2c(c(Cl)cc3c2B(O)OC3C)O1 (stereo not drawn) [Compound 9, methyl-5-chloro-1-hydroxy-3-methyl-7,8-dihydro-3H-furo[2,3-g][2,1]benzoxaborole-7-carboxylate]
herbicidal activity against Abutilon theophrasti ([1]; application rate 2 kg/ha): 100% | herbicidal activity against Avena fatua [2]: 98% | herbicidal activity against Amaranthus retroflexus ([3]; application rate 2 kg/ha): 100%

COC(=O)C1Cc2c(F)cc3c(c2O1)B(O)OC3 (stereo not drawn) [Compound 12]
herbicidal activity against Amaranthus retroflexus ([3]; application rate 0.25 kg/ha): 100% | herbicidal activity against Sesbania exaltata [10]: 100% | herbicidal activity against Polygonum convolvulus [11]: 95%

O=C(O)C1Cc2c(F)cc3c(c2O1)B(O)OC3 (stereo not drawn) [Compound 13]
herbicidal activity against Amaranthus retroflexus ([3]; application rate 0.25 kg/ha): 100% | herbicidal activity against Sesbania exaltata [10]: 100% | herbicidal activity against Polygonum convolvulus [11]: 85%

COC(=O)C1Cc2ccc3c(c2C1)B(O)OC3 (stereo not drawn) [Compound 14]
herbicidal activity against Abutilon theophrasti ([1]; application rate 0.25 kg/ha): 100% | herbicidal activity against Amaranthus retroflexus ([3]; application rate 0.25 kg/ha): 100% | herbicidal activity against Sesbania exaltata [10]: 100%

CCOC(=O)C1COc2ccc3c(c2O1)B(O)OC3 (stereo not drawn) [Compound 15]
herbicidal activity against Abutilon theophrasti ([1]; application rate 2 kg/ha): 90% | herbicidal activity against Amaranthus retroflexus ([3]; application rate 2 kg/ha): 90%

CCOC(=O)C1COc2c(ccc3c2B(O)OC3)O1 (stereo not drawn) [Compound 16]
herbicidal activity against Amaranthus retroflexus ([3]; application rate 2 kg/ha): 100%

COC(=O)C1Cc2c(ccc3c2B(O)OC3)O1 (stereo not drawn) [Compound 17]
herbicidal activity against Amaranthus retroflexus ([3]; application rate 2 kg/ha): 100%

O=C(O)C1Cc2c(ccc3c2B(O)OC3)O1 (stereo not drawn) [Compound 18]
herbicidal activity against Setaria viridis ([4]; application rate 1 kg/ha): 90% | herbicidal activity against Amaranthus retroflexus ([3]; application rate 1 kg/ha): 100%

COC(=O)C1Cc2c(C(F)(F)F)cc3c(c2C1)B(O)OC3 (stereo not drawn) [Compound 19]
herbicidal activity against Abutilon theophrasti ([1]; application rate 1 kg/ha): 100% | herbicidal activity against Setaria viridis ([4]; application rate 1 kg/ha): 90% | herbicidal activity against Amaranthus retroflexus ([3]; application rate 1 kg/ha): 100%

COC(=O)C1CCc2ccc3c(c2C1)B(O)OC3 (stereo not drawn) [Compound 20]
herbicidal activity against Abutilon theophrasti ([1]; application rate 1 kg/ha): 100% | herbicidal activity against Setaria viridis ([4]; application rate 1 kg/ha): 100% | herbicidal activity against Amaranthus retroflexus ([3]; application rate 1 kg/ha): 100%

O=C(O)C1CCc2ccc3c(c2C1)B(O)OC3 (stereo not drawn) [Compound 21]
herbicidal activity against Setaria viridis ([4]; application rate 1 kg/ha): 80% | herbicidal activity against Amaranthus retroflexus ([3]; application rate 1 kg/ha): 100% | herbicidal activity against Alopecurus myosuroides ([9]; application rate 1 kg/ha): 80%

O=C(O)C1Cc2c(C(F)(F)F)cc3c(c2C1)B(O)OC3 (stereo not drawn) [Compound 22]
herbicidal activity against Abutilon theophrasti ([1]; application rate 1 kg/ha): 100% | herbicidal activity against Amaranthus retroflexus ([3]; application rate 1 kg/ha): 100% | herbicidal activity against Alopecurus myosuroides ([9]; application rate 1 kg/ha): 95%

— US11058117B2, “Benzoxaborole compounds” (BASF SE, priority 2017, dated 2021)
